Assay results: patent US10881110B2, “Herbicidal compositions comprising isoxazolo[5,4-b]pyridines” (BASF SE, priority 2014, dated 2021)

What was measured:
Assay in all cases: greenhouse post-emergence herbicidal test
POLCO = assay type: in vivo, Polygonum convolvulus; parameters: key to herbicidal activity against POLCO found: rating on a scale from 0 to 100; conditions: post emergence
How it was run: (§1)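 Herbicidal activity scored on a 0 (no damage) to 100 (plants destroyed) scale, usually 20 days after water-based spraying of 1–15 cm plants grown in loamy sand at 10-25 °C or 20-35 °C depending on species. Components were applied from 10% emulsion concentrates; Colby's E=X+Y−(X·Y/100) gives the additive expectation.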

SASKR = assay type: in vivo, Salsola kali; parameters: key: scale 0 to 100
How it was run: as §1

STEME = assay type: in vivo, Stellaria media; parameters: key: scale 0 to 100
How it was run: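 Visual rating at 20 days after treatment used a 0–100 scale, where 100 meant no emergence or complete destruction of above-ground parts. Seedlings of 1–15 cm, grown at species-dependent 10-25° C or 20-35° C, received water-based spray liquor containing the formulated components.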

[1] = 6 days after treatment, g/ha a.i.: I.1 62.5, B.96 140, mixture 62.5+140
[2] = 6 days after treatment, g/ha a.i.: I.1 62.5, naptalam 50, mixture 62.5+50
[3] = a.i. g/ha: I.1 15.6, B.67 125, 20 days after treatment
[4] = a.i. g/ha: I.1 20.8, B.67 62.5, 20 days after treatment
[5] = a.i. g/ha: I.1 31.25, B.190 62.5, 20 days after treatment
[6] = a.i. g/ha: I.1 31.25, B.67 125, 20 days after treatment

O=C(O)c1cc(C2CC2)nc2onc(C3CC3)c12 [I.1]
herbicidal activity against POLCO found (POLCO; [1]): 70
herbicidal activity against POLCO found (POLCO; [2]): 70
herbicidal activity against POLCO found (POLCO; I.1 15.6 g/ha, B.103 7.5 g/ha a.i.): 10
herbicidal activity against POLCO found (POLCO; I.1 15.62 g/ha, B.167 62.5 g/ha a.i.): 10
herbicidal activity against POLCO found (POLCO; I.1 15.62 g/ha, B.167 125 g/ha a.i.): 10
herbicidal activity against POLCO found (POLCO; I.1 15.62 g/ha, B.89 12.5 g/ha a.i.): 0
herbicidal activity against POLCO found (POLCO; I.1 62.5 g/ha, B.103 7.5 g/ha a.i.): 40
herbicidal activity against POLCO found (POLCO; I.1 62.5 g/ha, B.103 15 g/ha a.i.): 40
herbicidal activity against POLCO found (POLCO; I.1 62.5 g/ha, B.167 62.5 g/ha a.i.): 40
herbicidal activity against POLCO found (POLCO; I.1 62.5 g/ha, B.167 125 g/ha a.i.): 40
herbicidal activity against POLCO found (POLCO; a.i. g/ha: I.1 15.6, B.190 62.5, 20 days after treatment): 30%
herbicidal activity against POLCO found (POLCO; [3]): 0%
herbicidal activity against POLCO found (POLCO; [4]): 30%
herbicidal activity against POLCO found (POLCO; a.i. g/ha: I.1 20.8, B.79 25, 20 days after treatment): 50%
herbicidal activity against POLCO found (POLCO; [5]): 50%
herbicidal activity against POLCO found (POLCO; [6]): 0%
herbicidal activity against POLCO found (POLCO; a.i. g/ha: I.1 31.25, bentazon Na 125, 20 days after treatment): 50%
herbicidal activity against POLCO found (POLCO; a.i. g/ha: I.1 62.5, B.67 62.5, 20 days after treatment): 65%
herbicidal activity against POLCO found (POLCO; a.i. g/ha: I.1 62.5, B.79 25, 20 days after treatment): 75%
herbicidal activity against POLCO found (POLCO; application rate a.i.: I.1 31.25 g/ha, B.100 (isoxaflutole) 12.5 g/ha, alone or as mixture (composition 1.100)): 70
herbicidal activity against POLCO found (POLCO; application rate a.i.: I.1 31.25 g/ha, B.139 (pyroxasulfone) 12.5 g/ha, alone or as mixture (composition 1.139)): 65
herbicidal activity against POLCO found (POLCO; application rate a.i.: I.1 31.25 g/ha, B.40 (imazethapyr) 7.5 g/ha, alone or as mixture (composition 1.40)): 20
herbicidal activity against POLCO found (POLCO; application rate a.i.: I.1 62.5 g/ha, B.107 (topramezone) 6 g/ha, alone or as mixture (composition 1.107)): 75
herbicidal activity against POLCO found (POLCO; application rate a.i.: I.1 62.5 g/ha, B.84 (paraquat-dichloride) 17.5 g/ha, alone or as mixture (composition 1.84)): 90
herbicidal activity against POLCO found (POLCO; applied alone at 31.25 g/ha a.i.): 65
herbicidal activity against POLCO found (POLCO; applied alone at 62.5 g/ha a.i.): 90
herbicidal activity against POLCO found (POLCO; applied alone at 125 g/ha a.i.): 85
herbicidal activity against POLCO found (POLCO; g/ha a.i.: I.1 31.25, B.63 1, mixture 31.25+1): 30
herbicidal activity against POLCO found (POLCO; g/ha a.i.: I.1 125, B.63 0.5, mixture 125+0.5): 80
herbicidal activity against POLCO found (POLCO; g/ha a.i.: I.1 125, B.63 1, mixture 125+1): 80
herbicidal activity against SASKAR found (SASKR; 31.25 g/ha a.i.): 60
herbicidal activity against SASKR found (SASKR; 31.25 g/ha a.i.): 20
herbicidal activity against SASKR found (SASKR; 6 days after treatment, g/ha a.i.: I.1 31.25, naptalam 200, mixture 31.25+200): 65
herbicidal activity against SASKR found (SASKR; [1]): 65
herbicidal activity against SASKR found (SASKR; [2]): 65
herbicidal activity against SASKR found (SASKR; 6 days after treatment, g/ha a.i.: I.1 62.5, naptalam 200, mixture 62.5+200): 65
herbicidal activity against SASKR found (SASKR; application rate a.i.: I.1 31.25 g/ha, B.84 (paraquat-dichloride) 17.5 g/ha, alone or as mixture (composition 1.84)): 10
herbicidal activity against STEME found (STEME; 31.25 g/ha a.i.): 70
herbicidal activity against STEME found (STEME; 62.5 g/ha a.i.): 65
herbicidal activity against STEME found (STEME; 6 days after treatment, g/ha a.i.: I.1 31.25, B.96 35, mixture 31.25+35): 60
herbicidal activity against STEME found (STEME; I.1 15.62 g/ha, B.103 15 g/ha a.i.): 60
herbicidal activity against STEME found (STEME; I.1 15.62 g/ha, B.89 25 g/ha a.i.): 0
herbicidal activity against STEME found (STEME; I.1 31.25 g/ha, B.89 12.5 g/ha a.i.): 0
herbicidal activity against STEME found (STEME; I.1 31.25 g/ha, B.89 25 g/ha a.i.): 0
herbicidal activity against STEME found (STEME; I.1 alone 31.25 g/ha a.i.): 30
herbicidal activity against STEME found (STEME; a.i. g/ha: I.1 2.3, B.67 62.5, 20 days after treatment): 0%
herbicidal activity against STEME found (STEME; a.i. g/ha: I.1 6.9, B.67 62.5, 20 days after treatment): 0%
herbicidal activity against STEME found (STEME; [3]): 0%
herbicidal activity against STEME found (STEME; [4]): 50%
herbicidal activity against STEME found (STEME; [5]): 70%
herbicidal activity against STEME found (STEME; [6]): 70%
herbicidal activity against STEME found (STEME; a.i. g/ha: I.1 31.25, B.67 125, 20 days after treatment, sub-table r36-r43): 70%
herbicidal activity against STEME found (STEME; a.i. g/ha: I.1 62.5, B.191 225, 20 days after treatment): 85%
